Source: ChEMBL document CHEMBL3045535, “Evaluation of lufenuron as a chemosterilant against fruit flies of the genus Anastrepha (Diptera: Tephritidae)” (2010)
Calls of active or inactive are those of the source. The calls are words filed in the database; no cut-off is given here.

Experiments:
Anastrepha obliqua [1] = experiment: Effect on fecundity in 7 days old adult male of Anastrepha obliqua at 30 mg/g treated with diet after 24 hr in presence of untreated adult female of Anastrepha obliqua; format: functional, organism-based
Anastrepha striata [2] = experiment: Reduction of fertility in 7 days old adult of Anastrepha striata assessed as reduction of egg hatching at 0.1 mg/g treated with diet measured after 1 day oviposition; format: functional; set-up: scale not given: the % may be the effect or the level left
Anastrepha serpentina [3] = experiment: Reduction of fertility in 7 days old adult of Anastrepha serpentina assessed as reduction of egg hatching at 30 mg/g treated with diet measured after 3 days oviposition; format: functional; set-up: scale not given: the % may be the effect or the level left
Anastrepha serpentina [4] = experiment: Reduction of fertility in 7 days old adult of Anastrepha serpentina assessed as reduction of egg hatching at 1 mg/g treated with diet measured after 3 days oviposition; format: functional; set-up: scale not given: the % may be the effect or the level left
Anastrepha ludens [5] = experiment: Reduction of fertility in 7 days old adult of Anastrepha ludens assessed as reduction of egg hatching at 1 mg/g treated with diet measured after 1 day oviposition; format: functional; set-up: scale not given: the % may be the effect or the level left
Anastrepha obliqua [6] = experiment: Reduction of fertility in 7 days old adult of Anastrepha obliqua assessed as reduction of egg hatching at 0.5 mg/g treated with diet measured after 9 days oviposition; format: functional; set-up: scale not given: the % may be the effect or the level left
Anastrepha striata [7] = experiment: Reduction of fertility in 7 days old adult of Anastrepha striata assessed as reduction of egg hatching at 5 mg/g treated with diet measured after 9 days oviposition; format: functional; set-up: scale not given: the % may be the effect or the level left
Anastrepha serpentina [8] = experiment: Reduction of fertility in 7 days old adult of Anastrepha serpentina assessed as reduction of egg hatching at 30 mg/g treated with diet measured after 9 days oviposition; format: functional; set-up: scale not given: the % may be the effect or the level left
Anastrepha obliqua [9] = experiment: Reduction of fertility in 7 days old adult of Anastrepha obliqua assessed as reduction of egg hatching at 0.1 mg/g treated with diet measured after 7 days oviposition; format: functional; set-up: scale not given: the % may be the effect or the level left
Anastrepha ludens [10] = experiment: Reduction of fertility in 7 days old adult of Anastrepha ludens assessed as reduction of egg hatching at 30 mg/g treated with diet measured after 11 days oviposition; format: functional; set-up: scale not given: the % may be the effect or the level left
Anastrepha serpentina [11] = experiment: Reduction of fertility in 7 days old adult of Anastrepha serpentina assessed as reduction of egg hatching at 0.5 mg/g treated with diet measured after 7 days oviposition; format: functional; set-up: scale not given: the % may be the effect or the level left
Anastrepha ludens [12] = experiment: Reduction of fertility in 7 days old adult of Anastrepha ludens assessed as reduction of egg hatching at 0.1 mg/g treated with diet measured after 5 days oviposition; format: functional; set-up: scale not given: the % may be the effect or the level left
Anastrepha striata [13] = experiment: Reduction of fertility in 7 days old adult of Anastrepha striata assessed as reduction of egg hatching at 1 mg/g treated with diet measured after 7 days oviposition; format: functional; set-up: scale not given: the % may be the effect or the level left
Anastrepha ludens [14] = experiment: Reduction of fertility in 7 days old adult of Anastrepha ludens assessed as reduction of egg hatching at 5 mg/g treated with diet measured after 11 days oviposition; format: functional; set-up: scale not given: the % may be the effect or the level left
Anastrepha striata [15] = experiment: Effect on fertility in 7 days old adult female of Anastrepha striata at 30 mg/g treated with diet after 24 hr in presence of untreated adult male of Anastrepha striata; format: functional, organism-based
Anastrepha obliqua [16] = experiment: Reduction of fertility in 7 days old adult of Anastrepha obliqua assessed as reduction of egg hatching at 5 mg/g treated with diet measured after 1 day oviposition; format: functional; set-up: scale not given: the % may be the effect or the level left
Anastrepha striata [17] = experiment: Reduction of fertility in 7 days old adult of Anastrepha striata assessed as reduction of egg hatching at 10 mg/g treated with diet measured after 7 days oviposition; format: functional; set-up: scale not given: the % may be the effect or the level left
Anastrepha ludens [18] = experiment: Reduction of fertility in 7 days old adult of Anastrepha ludens assessed as reduction of egg hatching at 0.1 mg/g treated with diet measured after 3 days oviposition; format: functional; set-up: scale not given: the % may be the effect or the level left
Anastrepha obliqua [19] = experiment: Reduction of fertility in 7 days old adult of Anastrepha obliqua assessed as reduction of egg hatching at 1 mg/g treated with diet measured after 9 days oviposition; format: functional; set-up: scale not given: the % may be the effect or the level left
Anastrepha ludens [20] = experiment: Reduction of fertility in 7 days old adult of Anastrepha ludens assessed as reduction of egg hatching at 10 mg/g treated with diet measured after 1 day oviposition; format: functional; set-up: scale not given: the % may be the effect or the level left
Anastrepha serpentina [21] = experiment: Reduction of fertility in 7 days old adult of Anastrepha serpentina assessed as reduction of egg hatching at 30 mg/g treated with diet measured after 5 days oviposition; format: functional; set-up: scale not given: the % may be the effect or the level left
Anastrepha serpentina [22] = experiment: Reduction of fertility in 7 days old adult of Anastrepha serpentina assessed as reduction of egg hatching at 0.1 mg/g treated with diet measured after 3 days oviposition; format: functional; set-up: scale not given: the % may be the effect or the level left
Anastrepha obliqua [23] = experiment: Reduction of fertility in 7 days old adult of Anastrepha obliqua assessed as reduction of egg hatching at 0.1 mg/g treated with diet measured after 1 day oviposition; format: functional; set-up: scale not given: the % may be the effect or the level left
Anastrepha ludens [24] = experiment: Reduction of fertility in 7 days old adult of Anastrepha ludens assessed as reduction of egg hatching at 1 mg/g treated with diet measured after 3 days oviposition; format: functional; set-up: scale not given: the % may be the effect or the level left
Anastrepha obliqua [25] = experiment: Reduction of fertility in 7 days old adult of Anastrepha obliqua assessed as reduction of egg hatching at 10 mg/g treated with diet measured after 9 days oviposition; format: functional; set-up: scale not given: the % may be the effect or the level left
Anastrepha obliqua [26] = experiment: Reduction of fertility in 7 days old adult of Anastrepha obliqua assessed as reduction of egg hatching at 1 mg/g treated with diet measured after 7 days oviposition; format: functional; set-up: scale not given: the % may be the effect or the level left
Anastrepha obliqua [27] = experiment: Reduction of fertility in 7 days old adult of Anastrepha obliqua assessed as reduction of egg hatching at 10 mg/g treated with diet measured after 3 days oviposition; format: functional; set-up: scale not given: the % may be the effect or the level left
Anastrepha obliqua [28] = experiment: Reduction of fertility in 7 days old adult of Anastrepha obliqua assessed as reduction of egg hatching at 10 mg/g treated with diet measured after 5 days oviposition; format: functional; set-up: scale not given: the % may be the effect or the level left
Anastrepha ludens [29] = experiment: Reduction of fertility in 7 days old adult of Anastrepha ludens assessed as reduction of egg hatching at 0.5 mg/g treated with diet measured after 7 days oviposition; format: functional; set-up: scale not given: the % may be the effect or the level left
Anastrepha striata [30] = experiment: Reduction of fertility in 7 days old adult of Anastrepha striata assessed as reduction of egg hatching at 0.1 mg/g treated with diet measured after 7 days oviposition; format: functional; set-up: scale not given: the % may be the effect or the level left
Anastrepha obliqua [31] = experiment: Effect on fecundity in 7 days old adult of Anastrepha obliqua at 0.1 to 30 mg/g treated with diet after 24 hr; format: functional, organism-based
Anastrepha serpentina [32] = experiment: Reduction of fertility in 7 days old adult of Anastrepha serpentina assessed as reduction of egg hatching at 0.5 mg/g treated with diet measured after 11 days oviposition; format: functional; set-up: scale not given: the % may be the effect or the level left
Anastrepha serpentina [33] = experiment: Reduction of fertility in 7 days old adult of Anastrepha serpentina assessed as reduction of egg hatching at 0.5 mg/g treated with diet measured after 9 days oviposition; format: functional; set-up: scale not given: the % may be the effect or the level left
Anastrepha obliqua [34] = experiment: Reduction of fertility in 7 days old adult of Anastrepha obliqua assessed as reduction of egg hatching at 30 mg/g treated with diet measured after 7 days oviposition; format: functional; set-up: scale not given: the % may be the effect or the level left
Anastrepha ludens [35] = experiment: Reduction of fertility in 7 days old adult of Anastrepha ludens assessed as reduction of egg hatching at 0.5 mg/g treated with diet measured after 1 day oviposition; format: functional; set-up: scale not given: the % may be the effect or the level left
Anastrepha obliqua [36] = experiment: Reduction of fertility in 7 days old adult of Anastrepha obliqua assessed as reduction of egg hatching at 0.5 mg/g treated with diet measured after 7 days oviposition; format: functional; set-up: scale not given: the % may be the effect or the level left
Anastrepha serpentina [37] = experiment: Reduction of fertility in 7 days old adult of Anastrepha serpentina assessed as reduction of egg hatching at 1 mg/g treated with diet measured after 1 day oviposition; format: functional; set-up: scale not given: the % may be the effect or the level left
Anastrepha serpentina [38] = experiment: Reduction of fertility in 7 days old adult of Anastrepha serpentina assessed as reduction of egg hatching at 0.5 mg/g treated with diet measured after 1 day oviposition; format: functional; set-up: scale not given: the % may be the effect or the level left
Anastrepha striata [39] = experiment: Reduction of fertility in 7 days old adult of Anastrepha striata assessed as reduction of egg hatching at 0.1 mg/g treated with diet measured after 9 days oviposition; format: functional; set-up: scale not given: the % may be the effect or the level left
Anastrepha striata [40] = experiment: Reduction of fertility in 7 days old adult of Anastrepha striata assessed as reduction of egg hatching at 30 mg/g treated with diet measured after 9 days oviposition; format: functional; set-up: scale not given: the % may be the effect or the level left
Anastrepha striata [41] = experiment: Reduction of fertility in 7 days old adult of Anastrepha striata assessed as reduction of egg hatching at 10 mg/g treated with diet measured after 3 days oviposition; format: functional; set-up: scale not given: the % may be the effect or the level left

O=C(NC(=O)c1c(F)cccc1F)Nc1cc(Cl)c(OC(F)(F)C(F)C(F)(F)F)cc1Cl (racemic) [LUFENURON]
Activity (Anastrepha obliqua [1]): inactive | Activity (Anastrepha striata [2]): 48.7% | Activity (Anastrepha serpentina [3]): 72.3% | Activity (Anastrepha serpentina [4]): 71.1% | Activity (Anastrepha ludens [5]): 8% | Activity (Anastrepha obliqua [6]): 4.7% | Activity (Anastrepha striata [7]): 8.7% | Activity (Anastrepha serpentina [8]): 76.7% | Activity (Anastrepha obliqua [9]): 8% | Activity (Anastrepha ludens [10]): 15.3% | Activity (Anastrepha serpentina [11]): 86.7% | Activity (Anastrepha ludens [12]): 30.7% | Activity (Anastrepha striata [13]): 1.3% | Activity (Anastrepha ludens [14]): 32.7% | Activity (Anastrepha striata [15]): inactive | Activity (Anastrepha obliqua [16]): 1.3% | Activity (Anastrepha striata [17]): 0% | Activity (Anastrepha ludens [18]): 18.7% | Activity (Anastrepha obliqua [19]): 0% | Activity (Anastrepha ludens [20]): 6% | Activity (Anastrepha serpentina [21]): 78.4% | Activity (Anastrepha serpentina [22]): 95% | Activity (Anastrepha obliqua [23]): 14.7% | Activity (Anastrepha ludens [24]): 9.3% | Activity (Anastrepha obliqua [25]): 0% | Activity (Anastrepha obliqua [26]): 0.7% | Activity (Anastrepha obliqua [27]): 1.3% | Activity (Anastrepha obliqua [28]): 0% | Activity (Anastrepha ludens [29]): 12% | Activity (Anastrepha striata [30]): 72% | Activity (Anastrepha obliqua [31]): inactive | Activity (Anastrepha serpentina [32]): 86% | Activity (Anastrepha serpentina [33]): 88% | Activity (Anastrepha obliqua [34]): 0.7% | Activity (Anastrepha ludens [35]): 8.7% | Activity (Anastrepha obliqua [36]): 0.7% | Activity (Anastrepha serpentina [37]): 42.7% | Activity (Anastrepha serpentina [38]): 88.3% | Activity (Anastrepha striata [39]): 70.7% | Activity (Anastrepha striata [40]): 7.3% | Activity (Anastrepha striata [41]): 10.7%
